We go through nine molecules from publication PMC8234231, “In Vitro Inhibition of Renal OCT2 and MATE1 Secretion by Antiemetic Drugs” (International Journal of Molecular Sciences, 2021).

In data set [1] the target is T1, human OCT2 (Homo sapiens, UniProt O15244).
T1 construct: expressed in transfected cells; gift of Dr. Kathy Giacomini, UCSF
T1 sequence (O15244 1-555): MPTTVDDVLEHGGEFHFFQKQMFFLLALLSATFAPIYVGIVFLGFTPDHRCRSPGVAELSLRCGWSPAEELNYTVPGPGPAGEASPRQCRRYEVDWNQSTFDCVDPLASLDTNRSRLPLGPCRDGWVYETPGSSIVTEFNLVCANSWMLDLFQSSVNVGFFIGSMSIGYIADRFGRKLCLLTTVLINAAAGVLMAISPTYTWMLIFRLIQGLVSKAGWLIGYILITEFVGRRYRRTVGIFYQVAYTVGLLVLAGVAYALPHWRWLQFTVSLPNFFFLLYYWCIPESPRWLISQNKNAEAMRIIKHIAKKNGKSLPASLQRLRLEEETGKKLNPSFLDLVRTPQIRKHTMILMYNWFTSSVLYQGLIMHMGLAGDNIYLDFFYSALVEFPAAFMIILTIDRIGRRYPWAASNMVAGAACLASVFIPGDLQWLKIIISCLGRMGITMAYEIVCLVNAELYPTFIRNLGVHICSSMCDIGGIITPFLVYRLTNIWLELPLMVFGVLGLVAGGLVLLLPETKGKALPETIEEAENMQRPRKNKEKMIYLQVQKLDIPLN
Description: Inhibition of ASP+ uptake in HEK293 cells overexpressing OCT2. It counts as cell-based. Particulars: for IC50: HEK293-OCT2, ASP+ 10 μM, 1 min, 37 °C, Avg ± SE (n = 3). How it is done:
(§1) After washing once with prewarmed Hank’s Buffered Saline Solution (HBSS), cells were preincubated for 30 min at 37 °C with various 5-HT3 antagonists for OCT2 cells or in a 30 mM NH4Cl solution in HBSS at pH 6.5 for MATE1 cells for intracellular acidification. Uptake into OCT2 cells was initiated through exposure to 10 μM of fluorescent substrate ASP^+ directly in the incubation media. Uptake into MATE1 cells was initiated by application of HBSS at pH 7.4 containing 5-HT3 antagonists and 10 μM of fluorescent substrate ASP^+. […] Media was removed and washed four times with ice-cold HBSS. Cells were lysed with 1% Triton X-100. […] Intracellular fluorescence was normalized to total protein concentration of cell lysates from each well using the bicinchoninic acid (BCA) assay (Pierce Biotechnology, Rockford, IL, USA). Experiments were repeated three separate times, with three to four replicates in each experiment.
(§2) GraphPad Prism v6 (GraphPad Software, La Jolla, CA, USA) was used for statistical analysis.

Data set [2] deals with empty vector (EV) HEK293 cells. Description: ASP+ uptake in empty vector (EV) HEK293 cells in presence of inhibitors. It counts as cell-based, human. The following applies: ASP+ 10 μM. From the text: Media was removed and washed four times with ice-cold HBSS. Cells were lysed with 1% Triton X-100. […] Experiments were repeated three separate times, with three to four replicates in each experiment.

Data set [3] has as its system OCT2 and MATE1. Nature of the data set: Inhibition of basolateral-to-apical transcellular transport of ASP+ in OCT2/MATE1 double-transfected MDCK cells (Transwell). The following applies: human. How it is done: (§3) Control and OCT2/MATE1-expressing MDCK cells were evaluated for protein expression of OCT2 and MATE1 using SDS-PAGE and western blotting with specific primary antibodies (OCT2, sc292622 1:500 and MATE1, sc133390 1:250, Santa Cruz Biotechnology, Santa Cruz, CA, USA), followed by an antirabbit HRP-conjugated secondary antibody (1:1000, Sigma Aldrich, St. Louis, MO, USA) and Super Signal Western Dura Extended Duration Substrate (Pierce Biotechnology, Rockford, IL, USA). Detection was performed with a FluorChem imager (ProteinSimple, Santa Clara, CA, USA). Both MDCK cell lines were seeded on 0.4 μm transwell inserts (VWR, Radnor, PA, USA) at a density of 2 × 10^5 cells/cm^2. Transport experiments were performed 3 to 5 days after seeding. The integrity of MDCK monolayers was verified by measuring transepithelial electrical resistance (TEER) >150 Ω*cm^2 using an epithelial voltohmmeter, EVOM^2 (World Precision Instruments, Sarasota, FL). Proper formation of tight junctions was also verified by measurement of passive permeability of lucifer yellow in the basolateral-to-apical (B-to-A) direction. Lucifer yellow (20 μM) was applied to the basolateral chamber for 1 h, and media were collected from the apical chamber.
(§4) After washing the cells once with Hank’s Buffered Saline Solution (HBSS) pH 7.4, transport studies were initiated after aspirating the wash buffer from both the apical and basal chambers. […] Cells were lysed with 1% Triton X-100. […] Intracellular fluorescence was normalized to total protein concentration of cell lysates from each transwell using the BCA assay. Experiments were performed in three individual Transwell inserts.

Data set [4] concerns human OCT2 and MATE1. Description: Intracellular accumulation of ASP+ in OCT2/MATE1 double-transfected MDCK cells. The following applies: 120 min; for effect on intracellular ASP+ accumulation: inhibitor 0.5–20 μM, ASP+ 25 μM; for increase in intracellular ASP+ accumulation: inhibitor 20 μM (highest concentration). It counts as cell-based. How it is done:
Cells were incubated with 5-HT3 antagonists in the apical chamber in HBSS pH 6.0 and 5-HT3 antagonists with ASP^+ (25 μM) in the basolateral chamber in HBSS pH 7.4 and incubated at 37 °C for 120 min. To measure time-dependent transcellular transport, an aliquot of the incubation medium (100 μL) from the apical chamber (receiving chamber) was collected at 40, 60, 90, and 120 min and replaced with an equal volume of fresh buffer containing 5-HT3 antagonist or the positive control chemical at the original concentration. […] Cells were lysed with 1% Triton X-100. […] Experiments were performed in three individual Transwell inserts.

The target of data set [5] is T2, MATE1 (Homo sapiens, UniProt Q96FL8).
T2 construct: expressed in transfected cells; gift of Dr. Kathy Giacomini, UCSF
T2 sequence (Q96FL8 1-570): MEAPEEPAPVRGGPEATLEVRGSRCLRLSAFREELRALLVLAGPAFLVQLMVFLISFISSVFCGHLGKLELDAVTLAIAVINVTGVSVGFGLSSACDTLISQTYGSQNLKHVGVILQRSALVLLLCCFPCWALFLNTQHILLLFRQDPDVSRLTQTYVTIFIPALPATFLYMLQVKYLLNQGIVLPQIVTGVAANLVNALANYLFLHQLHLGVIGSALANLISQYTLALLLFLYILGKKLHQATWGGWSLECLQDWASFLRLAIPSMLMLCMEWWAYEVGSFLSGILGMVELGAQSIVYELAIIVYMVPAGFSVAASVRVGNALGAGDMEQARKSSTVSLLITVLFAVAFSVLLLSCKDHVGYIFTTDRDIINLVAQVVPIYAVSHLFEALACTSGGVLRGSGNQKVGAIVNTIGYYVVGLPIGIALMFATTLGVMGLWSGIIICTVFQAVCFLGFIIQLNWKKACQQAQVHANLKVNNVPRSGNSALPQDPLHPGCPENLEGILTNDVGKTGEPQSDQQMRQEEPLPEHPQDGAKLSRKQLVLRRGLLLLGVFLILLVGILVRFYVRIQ
Description: Inhibition of ASP+ uptake in HEK293 cells overexpressing MATE1. It counts as cell-based. The following applies: for IC50: HEK293-MATE1, ASP+ 10 μM, 1 min, 37 °C, Avg ± SE (n = 3). The method, then:
as §1, §2

The test system of data set [6] is human OCT2 and MATE1. Description: Inhibition of basolateral-to-apical transcellular transport of ASP+ in OCT2/MATE1 double-transfected MDCK cells (Transwell). Particulars: for effect on B-to-A transport of ASP+: inhibitor 0.5–20 μM, 40–120 min, ASP+ 25 μM; for effect on transcellular transport of ASP+: inhibitor 10 and 20 μM. How it is done: as §3, §4
The conditions of data set [7]: no reference given, cited from earlier work; for metabolized by cytochrome P450 enzymes in the liver: range for the named drugs together.
Setting [8] is: probe ASP+ (25 μM, basolateral chamber).

As a reminder, the IC50 is the concentration that inhibits the measured activity by half. A higher IC50 goes with lower potency. A word on the inhibition: it is the change of the read-out against control, counted positive when it falls. Low values mean little suppression, high ones strong suppression. For orientation: half-life means the time needed for the level to fall by half in the phase considered.

Each structure is given as a SMILES string. Entries after “also recorded” stand apart in the source; their conditions may differ. Like-named read-outs stand apart in the source and are kept apart here.

In data set [1], `CN/C(=N/CCSCc1nc[nH]c1C)NC#N` [Cimetidine] displayed an IC50 of 24.5 ± 4 µM. The “effect on ASP+ uptake in EV cells” value in data set [2] is on record as “had no influence on ASP^+ uptake”. In data set [3] (setting [8]), this molecule showed an inhibition at 120 min, 5 μM of 18% and an inhibition at 120 min, 50 μM of 40%. For the same molecule, the “increase in intracellular accumulation of ASP+” value in data set [4] (cimetidine concentration not stated in the sentence (5 and 50 μM tested)) amounted to 1.8 fold.
In data set [1], `O=C(O[C@@H]1C[C@@H]2C[C@H]3C[C@H](C1)N2CC3=O)c1c[nH]c2ccccc12` [Dolasetron] had an IC50 of 85.4 ± 3.4 µM. In data set [5], this molecule had an IC50 of 27.4 ± 2.8 µM. For the same molecule, in data set [6], the “effect on B-to-A transport of ASP+” value is “at 10 and 20 μM inhibited ASP^+ transport at 120 min only”; the “effect on transcellular transport of ASP+” value was “similarly reduced the transcellular transport of ASP^+”. The “effect on intracellular ASP+ accumulation” value in data set [4] is on record as “No significant changes in ASP^+ accumulation”. In data set [7], the half-life was 8 to 9 h.
For `CN1C2CCCC1CC(NC(=O)c1nn(C)c3ccccc13)C2` (stereo not drawn) [Granisetron], the IC50 in data set [1] stood at 3.8 ± 1.6 µM. Also, 5 ± 1.1 µM corresponded to half-maximal inhibition in data set [5] (IC50). The “effect on ASP+ uptake in EV cells” value in data set [2] is given as “caused a small decrease in ASP^+ accumulation”. Further, in data set [6], the “effect on B-to-A transport of ASP+” value is given as “did not alter the B-to-A transport of ASP^+ at any concentration tested; also recorded: did not exhibit any significant inhibition”. For the same molecule, in data set [4], the “increase in intracellular ASP+ accumulation” value is 1.3 fold. In data set [7], the half-life is 8 to 9 h and the “metabolized by cytochrome P450 enzymes in the liver” value (“metabolized” below) is recorded as 48–95%.
`O=C1c2cccc3c2[C@H](CCC3)CN1[C@@H]1CN2CCC1CC2` [Palonosetron] displayed an IC50 in data set [1] of 2.2 ± 0.3 µM. This molecule also displayed an IC50 in data set [5] of 1.6 ± 0.6 µM. The “effect on ASP+ uptake in EV cells” value in data set [2] is “stimulated additional ASP^+ uptake”. For the same molecule, in data set [6], the “effect on B-to-A transport of ASP+” value was “concentration-dependent inhibition of ASP^+ secretion, which was significant at 10 and 20 μM for all time-points”; the “effect on transcellular transport of ASP+” value is recorded as “similarly reduced the transcellular transport of ASP^+”. In addition, the “effect on intracellular ASP+ accumulation” value in data set [4] was “No significant changes in ASP^+ accumulation”. In data set [7], the half-life is listed as 40 h and the “metabolized” value is recorded as 48–95%.
Turning to `CN1[C@@H]2CC[C@H]1C[C@@H](OC(=O)c1c[nH]c3ccccc13)C2` [Tropisetron], the IC50 in data set [1] was found to be 31.3 ± 6.6 µM. Further, half-maximal inhibition in data set [5] (IC50) required 1.6 ± 0.9 µM. The “effect on ASP+ uptake in EV cells” value in data set [2] is recorded as “stimulated additional ASP^+ uptake”. In addition, in data set [6], the “effect on B-to-A transport of ASP+” value is “concentration-dependent inhibition of ASP^+ secretion, which was significant at 10 and 20 μM for all time-points”; the “effect on transcellular transport of ASP+” value is “similarly reduced the transcellular transport of ASP^+”. The “increase in intracellular ASP+ accumulation” value in data set [4] stood at 1.5 fold. In addition, in data set [7], the half-life is listed as less than 6 h and the “metabolized” value is reported as 48–95%.
With `C[C@@H](O[C@H]1OCCN(Cc2n[nH]c(=O)[nH]2)[C@H]1c1ccc(F)cc1)c1cc(C(F)(F)F)cc(C(F)(F)F)c1` [aprepitant], the “effect on ASP+ uptake in OCT2-expressing HEK293 cells” value in data set [1] (ASP+ 10 μM) is given as “had no impact on ASP^+ uptake”. In data set [5] (ASP+ 10 μM), the “effect on ASP+ uptake in MATE1-expressing HEK293 cells” value is “had no impact on ASP^+ uptake”.
Consider `CCN(CC)CCNC(=O)c1cc(Cl)c(N)cc1OC` [metoclopramide], for which the “effect on ASP+ uptake in OCT2-expressing HEK293 cells” value in data set [1] was “inhibited OCT2 activity across a range of concentrations”. The “inhibition of MATE1 activity” value in data set [5] is on record as “None of these drugs inhibited MATE1 activity”.
For the molecule `CN1CCN(CCCN2c3ccccc3Sc3ccc(Cl)cc32)CC1` [prochlorperazine], in data set [1] (ASP+ 10 μM), the “effect on ASP+ uptake in OCT2-expressing HEK293 cells” value is “inhibited OCT2 activity across a range of concentrations”. Further, in data set [5] (inhibitor 10 μM, HEK293-MATE1 (data not shown)), the “inhibition of MATE1 activity” value is “None of these drugs inhibited MATE1 activity”.
On to `CCc1nc(N)nc(N)c1-c1ccc(Cl)cc1` [pyrimethamine], for which, in data set [3], the inhibition at 120 min, 1 μM was determined as 36%. In data set [4] (inhibitor 1 μM), the “increase in intracellular accumulation of ASP+” value is 1.3 fold.
